One series deals with MV4-11. Briefly: Antiproliferative activity against human MV4-11 cells assessed as reduction in cell viability measured after 72 hrs by Celltitre-glo luminescence assay. It is filed as functional, cell-based. To be noted: MV4-11, 72 h.
Series [1] in a line: Clearance in rat liver microsomes at 0.1 uM preincubated for 10 mins followed by NADPH addition and measured up to 60 mins by LC-MS/MS analysis. It is filed as ADME, Microsome. Particulars: 1 h. For orientation: Microsomes from liver hold many membrane-bound enzymes, among them those of drug oxidation.
Series [2] in a line: Clearance in mouse liver microsomes at 0.1 uM preincubated for 10 mins followed by NADPH addition and measured up to 60 mins by LC-MS/MS analysis. Particulars: 1 h. Type of series: ADME, Microsome.
For series [3], the target named is T1, Bromodomain-containing protein 4 (Homo sapiens, UniProt O60885).
Description: Binding affinity to N-terminal His6-tagged BRD4 bromodomain 1 (49 to 170 residues) (unknown origin) expressed in Escherichia coli BL21 (DE3) assessed as change in melting temperature at 1:100 molar ratio by SYPRO orange dye based fluorescence thermal shift assay
A short description of series [4]: Half life in mouse liver microsomes at 0.1 uM preincubated for 10 mins followed by NADPH addition and measured up to 60 mins by LC-MS/MS analysis. Type of series: ADME, Microsome.
Series [5] can be described thus: Clearance in human liver microsomes at 0.1 uM preincubated for 10 mins followed by NADPH addition and measured up to 60 mins by LC-MS/MS analysis. It is filed as ADME, Microsome. To be noted: 1 h.
The nature of series [6]: Half life in human liver microsomes at 0.1 uM preincubated for 10 mins followed by NADPH addition and measured up to 60 mins by LC-MS/MS analysis. It is filed as ADME, Microsome.
Series [7] addresses Histone acetyltransferase p300 (Homo sapiens, UniProt Q09472). Briefly: Inhibition of MSGRGK(Ac)-GGK(Ac)GLGK(Ac)GGAKRHR-biotin binding to EP300 (1040 to 1160 residues) (unknown origin) expressed in Escherichia coli BL21 (DE3) by Alphascreen assay. Background: Bead proximity is the source of the signal in Alpha formats.
Series [8] is described as follows: Half life in rat liver microsomes at 0.1 uM preincubated for 10 mins followed by NADPH addition and measured up to 60 mins by LC-MS/MS analysis. Type of series: ADME, Microsome.
Series [9] deals with T1, Bromodomain-containing protein 4. Briefly: Inhibition of SGRG-K(Ac)-GG-K(Ac)-GLG-K(Ac)-GGA-K(Ac)-RHRKVGG-K-Biotin binding to N-terminal His6-tagged BRD4 bromodomain 1 (49 to 170 residues) (unknown origin) expressed in Escherichia coli BL21 (DE3) preincubated for 15 mins followed by biotin-labeled H4 peptide addition and measured after 10 mins by Alphascreen assay.
Series [10] shares this target. The series is described as follows: Inhibition of SGRG-K(Ac)-GG-K(Ac)-GLG-K(Ac)-GGA-K(Ac)-RHRKVGG-K-Biotin binding to N-terminal His6-tagged BRD4 bromodomain 2 (344 to 455 residues) (unknown origin) expressed in Escherichia coli BL21 (DE3) preincubated for 15 mins followed by biotin-labeled H4 peptide addition and measured after 10 mins by Alphascreen assay.
The test system of another series is MM1.S. The series is described as follows: Antiproliferative activity against human MM1S cells assessed as reduction in cell viability measured after 72 hrs by Celltitre-glo luminescence assay. It is filed as functional, cell-based.
For the next series, the system named is RS4-11. The series is described as follows: Antiproliferative activity against human RS4:11 cells assessed as reduction in cell viability measured after 72 hrs by Celltitre-glo luminescence assay. Type of series: functional, cell-based. Particulars: RS4-11, 72 h.
The next series deals with Kasumi 1. The series is described as follows: Antiproliferative activity against human Kasumi-1 cells assessed as reduction in cell viability measured after 72 hrs by Celltitre-glo luminescence assay. Particulars: Kasumi 1, 72 h. Type of series: functional, cell-based.

Molecules are shown by their SMILES. pIC50: −log10 of the molar value.

Chain of Histone acetyltransferase p300 (Q09472 whole entry, the tested form may be a part): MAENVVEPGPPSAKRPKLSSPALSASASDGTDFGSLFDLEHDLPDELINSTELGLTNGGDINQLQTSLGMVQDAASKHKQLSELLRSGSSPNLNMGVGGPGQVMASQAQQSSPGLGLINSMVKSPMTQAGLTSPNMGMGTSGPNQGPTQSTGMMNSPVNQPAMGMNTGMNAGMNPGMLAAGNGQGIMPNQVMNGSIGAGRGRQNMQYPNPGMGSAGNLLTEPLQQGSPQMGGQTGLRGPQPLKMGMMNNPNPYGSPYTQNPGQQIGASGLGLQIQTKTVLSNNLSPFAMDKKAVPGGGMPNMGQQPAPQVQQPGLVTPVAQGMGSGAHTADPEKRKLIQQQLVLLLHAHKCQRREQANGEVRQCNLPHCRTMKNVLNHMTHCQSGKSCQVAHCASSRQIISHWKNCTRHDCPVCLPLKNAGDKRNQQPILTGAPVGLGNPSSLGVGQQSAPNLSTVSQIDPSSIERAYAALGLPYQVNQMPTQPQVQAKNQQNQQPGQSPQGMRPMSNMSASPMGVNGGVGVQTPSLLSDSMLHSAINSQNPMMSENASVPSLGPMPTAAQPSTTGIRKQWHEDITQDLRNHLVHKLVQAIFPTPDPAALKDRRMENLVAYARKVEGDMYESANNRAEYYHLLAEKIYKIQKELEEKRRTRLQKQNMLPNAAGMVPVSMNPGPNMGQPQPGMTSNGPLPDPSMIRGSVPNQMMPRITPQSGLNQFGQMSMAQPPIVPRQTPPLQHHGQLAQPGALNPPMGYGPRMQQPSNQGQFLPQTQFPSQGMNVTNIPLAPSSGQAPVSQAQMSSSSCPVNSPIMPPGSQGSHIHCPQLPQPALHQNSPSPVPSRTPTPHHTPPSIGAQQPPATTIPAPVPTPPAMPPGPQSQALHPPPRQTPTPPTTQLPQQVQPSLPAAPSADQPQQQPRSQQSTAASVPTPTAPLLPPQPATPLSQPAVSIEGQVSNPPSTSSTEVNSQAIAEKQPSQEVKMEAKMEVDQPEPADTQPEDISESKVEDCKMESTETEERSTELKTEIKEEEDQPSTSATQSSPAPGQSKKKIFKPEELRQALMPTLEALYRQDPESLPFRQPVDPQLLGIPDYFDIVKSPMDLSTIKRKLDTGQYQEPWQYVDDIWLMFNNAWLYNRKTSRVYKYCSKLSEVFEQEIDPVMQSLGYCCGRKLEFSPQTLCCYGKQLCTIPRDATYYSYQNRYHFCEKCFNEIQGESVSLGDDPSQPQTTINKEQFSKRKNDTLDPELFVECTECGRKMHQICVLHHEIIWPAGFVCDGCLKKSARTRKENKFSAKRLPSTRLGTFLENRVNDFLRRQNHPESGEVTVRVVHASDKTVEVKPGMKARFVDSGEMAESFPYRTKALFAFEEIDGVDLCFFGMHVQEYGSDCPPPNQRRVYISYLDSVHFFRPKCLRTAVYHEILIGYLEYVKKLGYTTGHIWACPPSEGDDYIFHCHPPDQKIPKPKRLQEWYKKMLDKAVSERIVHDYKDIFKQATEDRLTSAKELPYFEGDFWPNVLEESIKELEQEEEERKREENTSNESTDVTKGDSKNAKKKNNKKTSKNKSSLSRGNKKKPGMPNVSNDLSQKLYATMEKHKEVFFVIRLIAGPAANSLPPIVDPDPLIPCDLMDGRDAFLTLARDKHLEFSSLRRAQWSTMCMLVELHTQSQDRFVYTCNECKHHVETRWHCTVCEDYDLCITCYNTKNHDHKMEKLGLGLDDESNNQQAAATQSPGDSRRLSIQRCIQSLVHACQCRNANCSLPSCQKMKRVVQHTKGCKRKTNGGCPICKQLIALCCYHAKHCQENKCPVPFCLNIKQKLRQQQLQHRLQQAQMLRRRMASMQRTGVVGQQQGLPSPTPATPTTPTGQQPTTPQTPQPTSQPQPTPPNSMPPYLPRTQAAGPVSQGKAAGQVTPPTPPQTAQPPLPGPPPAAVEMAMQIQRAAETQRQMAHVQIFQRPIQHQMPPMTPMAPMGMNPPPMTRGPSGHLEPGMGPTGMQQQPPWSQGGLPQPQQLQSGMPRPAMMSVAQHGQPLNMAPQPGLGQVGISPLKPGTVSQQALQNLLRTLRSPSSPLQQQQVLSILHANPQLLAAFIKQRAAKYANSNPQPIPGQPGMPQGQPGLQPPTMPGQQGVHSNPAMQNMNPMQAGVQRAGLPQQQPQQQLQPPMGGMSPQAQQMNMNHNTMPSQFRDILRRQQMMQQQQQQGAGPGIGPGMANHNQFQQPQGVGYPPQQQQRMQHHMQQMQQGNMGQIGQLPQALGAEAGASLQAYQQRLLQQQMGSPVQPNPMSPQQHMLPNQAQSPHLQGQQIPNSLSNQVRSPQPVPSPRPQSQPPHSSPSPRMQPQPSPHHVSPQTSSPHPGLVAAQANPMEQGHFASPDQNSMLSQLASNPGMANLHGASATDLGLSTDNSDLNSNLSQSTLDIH

As for `Cc1cc(-c2cc(NS(C)(=O)=O)ccc2Oc2ccccc2)n2cc[nH]c(=O)c12`, the pIC50 (commonly the negative decadic logarithm of the IC50, by convention in mol/L) is 7.69 with MV4-11 and 4.60 in series [7]. Further, the Intrinsic clearance in [1] is 3039 mL/min/g. Moreover, the results for the Microsomal intrinsic clearance in [2] and in series [5] were 116 mL/min/g and 74 mL/min/g, respectively. The ΔTm (commonly the shift of the melting midpoint relative to a reference) in series [3] is greater than 1 °C. The half-life (usually the time needed for the level to fall by half in the phase considered) at 0.1 µM in [4] was 18.1 min; in [6], 28.4 min; in [8], 0.7 min.

As for `Cc1cc(-c2cc(S(=O)(=O)N(C)C)cnc2Oc2ccc(F)cc2F)n2cc[nH]c(=O)c12`, the pIC50 is 6.13 in [9], 6.11 in [10] and less than 4.00 in series [7]. The ΔTm in series [3] was greater than 1 °C.

Take `Cc1cc(-c2cc(NS(C)(=O)=O)ccc2Oc2ccccc2)n2c1C(=O)NCC2`: the results for the pIC50 in [9], in [10] and in series [7] were 7.12, 6.89 and 4.46, respectively.

`Cc1cc(-c2cc(S(=O)(=O)NC(C)(C)C)cnc2Oc2ccc(F)cc2F)n2cc[nH]c(=O)c12`: the pIC50 in [9] is 6.10; in series [10], 6.32; in series [7] it was less than 4.00. Besides, the ΔTm in series [3] was greater than 1 °C.

Consider `Cc1cc(-c2cc(NS(C)(=O)=O)cnc2Oc2ccc(F)cc2F)n2cc[nH]c(=O)c12`, for which the pIC50 in the series with MV4-11 is 6.27; in series [7] it was less than 5.30. Moreover, the ΔTm in [3] is greater than 1 °C.

For `Cc1cc(-c2cc(NS(C)(=O)=O)ccc2OC2CCOCC2)n2cc[nH]c(=O)c12`, the results for the negative-log IC50 (pIC50) (in the series on MV4-11; in series [7]) were 6.41 and less than 4.48, respectively. Further, in series [3], the ΔTm is greater than 1 °C.

`Cc1cc(Br)n2cc[nH]c(=O)c12`: the ΔTm in series [3] stood at 1.9 °C.

`Cc1cc(-c2cc(NS(C)(=O)=O)ccc2Oc2ccc(Cl)cc2)n2cc[nH]c(=O)c12`: the pIC50 in the series on MV4-11 was 6.93; in series [9], 6.89; in series [10], 6.75; in [7], 4.24. In addition, in series [3], the ΔTm is greater than 1 °C.

For the molecule `Cc1cc(-c2cc(NS(C)(=O)=O)ccc2Oc2ccc(F)cc2F)n2cc[nH]c(=O)c12`, the pIC50 with MV4-11 is 7.44; in series [7], 4.75. In addition, the Intrinsic clearance in [1] was 327 mL/min/g. In addition, the values for the Microsomal intrinsic clearance in [2] and in [5] were 141 mL/min/g and 36.2 mL/min/g, respectively. In series [3], the ΔTm is greater than 1 °C. Moreover, the half-life at 0.1 µM in series [4] worked out at 14.9 min; in series [6], 58.1 min; in [8], 6.4 min.

With `Cc1cc(-c2cc(S(C)(=O)=O)cnc2Oc2ccc(F)cc2F)n2cc[nH]c(=O)c12`, the pIC50 was 6.54 in [9], 6.64 in series [10] and less than 4.48 in series [7]. Further, the ΔTm in series [3] was greater than 1 °C.

As for `CC(=O)Nc1ccc(Oc2ccc(F)cc2F)c(-c2cc(C)c3c(=O)[nH]ccn23)c1`, the pIC50 is 6.66 in [9], 7.01 in series [10] and less than 4.00 in [7]. Moreover, the ΔTm in series [3] is greater than 1 °C.

For `Cc1cc(-c2ccccc2Oc2ccccc2)n2cc[nH]c(=O)c12`, the pIC50 in series [9] was 5.35; in [10], 5.80. The ΔTm in series [3] was greater than 1 °C.

`Cc1cc(-c2cc(S(C)(=O)=O)ccc2Oc2ccc(F)cc2F)n2cc[nH]c(=O)c12`: the pIC50 in series [9] is 6.87; in series [10], 6.93; in series [7], less than 4.48. The thermal shift (ΔTm) in series [3] is greater than 1 °C.

For the molecule `Cc1cc(-c2cc(NS(C)(=O)=O)ccc2Sc2ccccc2)n2cc[nH]c(=O)c12`, the ΔTm in series [3] is greater than 1 °C. In series [7], this molecule gave a pIC50 of less than 4.00.

With `Cc1cc(-c2cc(NS(C)(=O)=O)ccc2Oc2ccccc2)n2ccn(C)c(=O)c12`, the pIC50 in series [9] and in series [10] was less than 5.70 in each case. Also, the ΔTm in [3] is greater than 1 °C.

As to `Cc1cc(-c2cc(NS(C)(=O)=O)ccc2Oc2ccccn2)n2cc[nH]c(=O)c12`, the pIC50 in the series with MV4-11 was 6.68; in [9], 7.56; in [10] it was 7.59; in series [7], 4.90. Further, the ΔTm in series [3] is greater than 1 °C.

With `Cc1cc(-c2cc(NS(C)(=O)=O)ccc2OCC2CC2)n2cc[nH]c(=O)c12`, the pIC50 is 6.73 in the series on MV4-11, 7.10 in [9], 7.11 in series [10] and 4.60 in series [7]. Moreover, in [3], the ΔTm was greater than 1 °C.

Consider `Cc1cc(-c2cc(NS(C)(=O)=O)ccc2Nc2ccccc2)n2cc[nH]c(=O)c12`, for which the pIC50 with MV4-11 was 6.59; in [9] it was 7.17; in series [10] it was 7.55; in [7], less than 4.48. The ΔTm in [3] is greater than 1 °C.

On to `Cc1cc(-c2cc(CS(C)(=O)=O)ccc2Oc2ccc(F)cc2F)n2cc[nH]c(=O)c12`, for which the pIC50 is 7.83 in the series with MV4-11 and 4.78 in [7]. The molecule also showed an Intrinsic clearance in series [1] of 112 mL/min/g. In addition, the values for the Microsomal intrinsic clearance in series [2] and in series [5] were 380 mL/min/g and 115 mL/min/g, respectively. The ΔTm in series [3] is greater than 1 °C. Besides, the values for the half-life at 0.1 µM in series [4], in series [6] and in series [8] were 5.5 min, 18.2 min and 18.8 min, respectively.

For `Cc1cc(-c2cc(NS(C)(=O)=O)ccc2OC2CCCCC2)n2cc[nH]c(=O)c12`, the pIC50 with MV4-11 was 8.31; in [7] it was 5.27. This molecule yielded an Intrinsic clearance in [1] of 2137 mL/min/g. Moreover, the Microsomal intrinsic clearance in series [2] came out at 333 mL/min/g; in series [5], 752 mL/min/g. The ΔTm in series [3] is greater than 1 °C. For the same molecule, the half-life at 0.1 µM is 6.3 min in series [4], 2.7 min in series [6] and 0.9 min in series [8].

Take `CCS(=O)(=O)Nc1ccc(Oc2ccc(F)cc2F)c(-c2cn(C)c(=O)c3[nH]ccc23)c1` [MIVEBRESIB]: the pIC50 in the series on MM1.S is 8.19; in the series with MV4-11, 8.72; with RS4-11, 8.19; in series [10], 8.57; in series [7] it was 7.20; with Kasumi 1, 8.20. Further, the ΔTm in [3] was greater than 1 °C.

In the case of `Cc1cc(-c2cc(S(=O)(=O)NC(C)(C)C)ccc2Oc2ccc(F)cc2F)n2cc[nH]c(=O)c12`, the pIC50 in [9] is 6.36; in series [10], 6.38; in series [7], less than 4.00. Besides, the ΔTm in [3] was greater than 1 °C.

As for `CCS(=O)(=O)Nc1ccc(Oc2ccc(F)cc2F)c(-c2cc(C)c3c(=O)[nH]ccn23)c1`, the pIC50 in the series with MV4-11 is 7.84; in series [7], 5.40. In series [1], this molecule yielded an Intrinsic clearance of 264 mL/min/g. Moreover, the Microsomal intrinsic clearance in series [2] worked out at 229 mL/min/g; in series [5], 62 mL/min/g. The ΔTm in series [3] was greater than 1 °C. Moreover, the values for the half-life at 0.1 µM in series [4], in [6] and in [8] were 9.1 min, 33.9 min and 7.9 min, respectively.

For `CCS(=O)(=O)Cc1ccc(Oc2ccc(F)cc2F)c(-c2cc(C)c3c(=O)[nH]ccn23)c1`, the pIC50 in the series with MV4-11 is 8.19; in [9] it was 8.33; in series [10], 8.13; in [7], 4.73. The molecule also came in with an Intrinsic clearance in series [1] of 61.9 mL/min/g. For the same molecule, the Microsomal intrinsic clearance worked out at 175 mL/min/g in [2] and 46 mL/min/g in series [5]. The ΔTm in series [3] is greater than 1 °C. The results for the half-life at 0.1 µM in series [4], in series [6] and in [8] were 12 min, 46.3 min and 33.9 min, respectively.

With `Cc1cc(-c2cc(S(=O)(=O)N(C)C)ccc2Oc2ccc(F)cc2F)n2cc[nH]c(=O)c12`, the pIC50 in [9] was 6.70; in series [10], 7.15; in [7], less than 4.00. In series [3], the ΔTm is greater than 1 °C.

In the case of `Cc1cc(-c2cc(NS(C)(=O)=O)ccc2OCC(C)(C)C)n2cc[nH]c(=O)c12`, the pIC50 in [9] is less than 6.00; in series [10] it was 6.17; in series [7], 4.57. The ΔTm in series [3] was greater than 1 °C.

With `Cc1cc(-c2cc(NS(C)(=O)=O)ccc2Cc2ccccc2)n2cc[nH]c(=O)c12`, the results for the pIC50 in series [9], in [10] and in series [7] were less than 6.00, less than 6.00 and 4.81, respectively. In addition, the ΔTm in series [3] was greater than 1 °C.

For the origin of these results see ChEMBL document CHEMBL4402585 (J Med Chem, 2020).
